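Briefly, cells in 96-well plates were exposed to five compound concentrations for 48 h, and endpoints were estimated by linear interpolation. GI50 = concentration required for 50% inhibition of growth.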 Active and inactive are the calls of the source. Rule as the data show it: active = GI50 up to about 1.1 µM and inactive = higher.
What was measured:
Test in all cases: NCI anticancer screen, dose series, 48 h
TK-10 = tested on: TK-10
NCI/ADR-RES = tested on: NCI/ADR-RES
Hs-578T = tested on: Hs-578T
SF-539 = tested on: SF-539
OVCAR-8 = tested on: OVCAR-8
MOLT-4 = tested on: MOLT-4
COLO 205 = tested on: COLO 205
MDA-MB-231 = tested on: MDA-MB-231
UO-31 = tested on: UO-31
RXF 393 = tested on: RXF 393
A498 = tested on: A498
SF-268 = tested on: SF-268
SNB-19 = tested on: SNB-19
CAKI-1 = tested on: CAKI-1
SK-MEL-2 = tested on: SK-MEL-2
HCC 2998 = tested on: HCC 2998
OVCAR-5 = tested on: OVCAR-5
SK-MEL-28 = tested on: SK-MEL-28
HT-29 = tested on: HT-29
NCI-H226 = tested on: NCI-H226
MDA-N = tested on: MDA-N
HOP-92 = tested on: HOP-92
SF-295 = tested on: SF-295
BT-549 = tested on: BT-549
SR = tested on: SR
IGROV-1 = tested on: IGROV-1
HOP-62 = tested on: HOP-62
K562 = tested on: K562
MDA-MB-435 = tested on: MDA-MB-435
HL-60 = tested on: HL-60
NCI-H522 = tested on: NCI-H522
HCT-116 = tested on: HCT-116
SNB-75 = tested on: SNB-75
OVCAR-4 = tested on: OVCAR-4
OVCAR-3 = tested on: OVCAR-3
SK-OV-3 = tested on: SK-OV-3
UACC-62 = tested on: UACC-62
NCI-H460 = tested on: NCI-H460
SN12C = tested on: SN12C
UACC-257 = tested on: UACC-257
T47D = tested on: T47D
CCRF-CEM = tested on: CCRF-CEM
Malme-3M = tested on: Malme-3M
EKVX = tested on: EKVX
RPMI-8226 = tested on: RPMI-8226
LOX IMVI = tested on: LOX IMVI
HCT-15 = tested on: HCT-15
NCI-H23 = tested on: NCI-H23
DU-145 = tested on: DU-145
U-251 = tested on: U-251
786-0 = tested on: 786-0
SW-620 = tested on: SW-620
PC-3 = tested on: PC-3
A549 = tested on: A549
MCF7 = tested on: MCF7
M14 = tested on: M14
KM12 = tested on: KM12
ACHN = tested on: ACHN
SK-MEL-5 = tested on: SK-MEL-5
KM-20L2 = tested on: KM-20L2
DMS-114 = tested on: DMS-114
SNB-78 = tested on: SNB-78
LXFL 529 = tested on: LXFL 529
DLD-1 = tested on: DLD-1

Measured: GI50

C[C@H](CCC(=O)O)[C@H]1CC[C@@]2(C)[C@@H]3C(=O)C[C@H]4C(C)(C)[C@@H](O)CC[C@]4(C)[C@H]3C(=O)C[C@]12C
> 100 µM: HCT-15
inactive: TK-10 > 100 µM | NCI/ADR-RES > 100 µM | Hs-578T 41.8 µM | SF-539 > 100 µM | OVCAR-8 > 100 µM | MOLT-4 > 100 µM | COLO 205 > 100 µM | MDA-MB-231 > 100 µM | UO-31 13.9 µM | RXF 393 > 100 µM | A498 > 100 µM | SF-268 > 100 µM | SNB-19 > 100 µM | CAKI-1 > 100 µM | SK-MEL-2 > 100 µM | HCC 2998 > 100 µM | OVCAR-5 > 100 µM | SK-MEL-28 > 100 µM | HT-29 > 100 µM | NCI-H226 > 100 µM | MDA-N > 100 µM | HOP-92 > 100 µM | SF-295 > 100 µM | BT-549 > 100 µM | SR > 100 µM | IGROV-1 > 100 µM | HOP-62 > 100 µM | K562 > 100 µM | MDA-MB-435 > 100 µM | HL-60 25.1 µM | NCI-H522 > 100 µM | HCT-116 > 100 µM | SNB-75 > 100 µM | OVCAR-4 > 100 µM | OVCAR-3 > 100 µM | SK-OV-3 > 100 µM | UACC-62 > 100 µM | NCI-H460 62.7 µM | SN12C > 100 µM | UACC-257 > 100 µM | T47D > 100 µM | CCRF-CEM > 100 µM | Malme-3M > 100 µM | EKVX > 100 µM | RPMI-8226 > 100 µM | LOX IMVI > 100 µM | NCI-H23 > 100 µM | DU-145 > 100 µM | U-251 > 100 µM | 786-0 > 100 µM | SW-620 > 100 µM | PC-3 > 100 µM | A549 > 100 µM | MCF7 > 100 µM | M14 > 100 µM | KM12 > 100 µM | ACHN > 100 µM | SK-MEL-5 > 100 µM

Cc1cc(C)nc(NS(=O)(=O)c2ccc(Nc3c4ccccc4nc4ccc(C(=O)Nc5ccc(S(N)(=O)=O)cc5)cc34)cc2)n1
inactive: TK-10 > 100 µM | NCI/ADR-RES 69.3 µM | Hs-578T > 100 µM | SF-539 > 100 µM | OVCAR-8 43 µM | MOLT-4 > 100 µM | COLO 205 > 100 µM | MDA-MB-231 20 µM | UO-31 > 100 µM | RXF 393 > 100 µM | A498 > 100 µM | SF-268 > 100 µM | SNB-19 > 100 µM | CAKI-1 > 100 µM | SK-MEL-2 > 100 µM | HCC 2998 > 100 µM | OVCAR-5 > 100 µM | SK-MEL-28 > 100 µM | HT-29 > 100 µM | NCI-H226 > 100 µM | MDA-N > 100 µM | HOP-92 > 100 µM | SF-295 > 100 µM | BT-549 24.9 µM | SR > 100 µM | IGROV-1 > 100 µM | HOP-62 > 100 µM | K562 66.4 µM | MDA-MB-435 > 100 µM | HL-60 > 100 µM | NCI-H522 > 100 µM | HCT-116 > 100 µM | SNB-75 > 100 µM | OVCAR-4 > 100 µM | OVCAR-3 > 100 µM | SK-OV-3 > 100 µM | UACC-62 > 100 µM | NCI-H460 > 100 µM | SN12C > 100 µM | UACC-257 > 100 µM | T47D 78 µM | CCRF-CEM 63.7 µM | Malme-3M > 100 µM | EKVX > 100 µM | RPMI-8226 77.4 µM | LOX IMVI 50.6 µM | NCI-H23 > 100 µM | DU-145 > 100 µM | U-251 66.4 µM | 786-0 > 100 µM | SW-620 > 100 µM | PC-3 > 100 µM | A549 > 100 µM | MCF7 > 100 µM | M14 > 100 µM | KM12 > 100 µM | ACHN > 100 µM | SK-MEL-5 72.6 µM
> 100 µM: HCT-15

CC1=CC(=O)c2[nH]c3ccccc3c2C1=O [MURRAYAQUINONE A]
inactive: OVCAR-8 4.02 µM | SNB-19 > 25 µM | OVCAR-5 5.4 µM | HOP-62 > 25 µM | KM-20L2 > 25 µM | OVCAR-4 4.16 µM | OVCAR-3 4.53 µM | RPMI-8226 5.96 µM | DMS-114 4.26 µM | A549 > 25 µM

C#Cc1cccc(NC(=O)/C=C\C(=O)O)c1
inactive: TK-10 > 100 µM | SNB-78 > 100 µM | OVCAR-8 > 100 µM | MOLT-4 > 100 µM | COLO 205 > 100 µM | UO-31 > 100 µM | A498 > 100 µM | SF-268 > 100 µM | SNB-19 > 100 µM | LXFL 529 > 100 µM | CAKI-1 > 100 µM | SK-MEL-2 > 100 µM | OVCAR-5 > 100 µM | SK-MEL-28 > 100 µM | HT-29 > 100 µM | NCI-H226 > 100 µM | HOP-92 > 100 µM | SF-295 > 100 µM | K562 > 100 µM | HL-60 > 100 µM | KM-20L2 > 100 µM | NCI-H522 > 100 µM | HCT-116 > 100 µM | SNB-75 > 100 µM | OVCAR-4 > 100 µM | SK-OV-3 > 100 µM | UACC-62 > 100 µM | NCI-H460 > 100 µM | SN12C > 100 µM | UACC-257 > 100 µM | CCRF-CEM > 100 µM | Malme-3M > 100 µM | EKVX > 100 µM | RPMI-8226 > 100 µM | NCI-H23 > 100 µM | U-251 > 100 µM | 786-0 > 100 µM | SW-620 > 100 µM | A549 > 100 µM | KM12 > 100 µM | ACHN > 100 µM | DLD-1 > 100 µM | SK-MEL-5 > 100 µM

Source: ChEMBL document CHEMBL1201862, “PubChem BioAssay data set” (2004)
